Key:
Type in all cases: in vivo, human
[1] = Single dose study in healthy men, plasma pharmacokinetics
Description: (§1) In the single dose study, 15 healthy men (3 groups of 5) received a single oral dose of IB-MECA (1, 5 or 10 mg) or placebo. In each group, 1 subject received placebo. In the repeated dose study, 28 healthy men (4 groups of 7) received repeated oral doses of IB-MECA (2, 3, 4 or 5 mg) or placebo every 12 h for 7 days. In each group, 2 subjects received placebo.
(§2) In the single dose study, a solution with IB-MECA powder in 30% Cremophor RH40 (BASF) was used. In the repeated dose study, an aqueous 0.5% methylcellulose suspension (Methocel A4M Premium, The Dow Chemical Company) was used. In both studies, the study medication was taken orally as a drink, followed by 50 ml of tap water.
(§3) The following procedures were done: • Safety assesment: laboratory assessments (routine biochemistry and urinalysis), physical examination, 12-lead ECG, ambulatory ECG, pulmonary function testing (FEV1), vital signs (semi-recumbent in the single dose study; semi-recumbent and standing in the repeat dose study). Adverse events were recorded throughout both studies. • Determination of IB-MECA blood level: in the single dose study blood samples for assay of IB-MECA were taken immediately before and at 0.25, 0.5, 1, 2, 4, 8, 12, 24, and 48 h after dosing; in the repeat dose study—blood samples were taken immediately before and at 0.25, 0.5, 1, 2, 4, 8, and 12 h after dosing on Day 1, before dosing on Days 2–6, and before and at 0.25, 0.5, 1, 2, 4, 8, 12, and 24 h after dosing on Day 7.
(§4) Plasma samples were assayed for IB-MECA using LC/MS/MS. The lower limit of quantification (LLOQ) was 0.1 ng/mL. Intra-assay coefficients of variation (CV) were <5.0% and inter-assay CVs were <9.4%.
(§5) Maximum concentration (Cmax) and time to maximum concentration (tmax) were observed values. Other pharmacokinetic parameters (half-life, t^1/2; AUC; and clearance, CL/F) were calculated by non-compartmental methods using WinNonlin® software (version 3.0, Pharsight, Mountain View, Calif., US). Accumulation indices of Cmax and AUC were calculated as ratio of values at steady state (Day 7) to the values on Day 1.

healthy men = test: Repeat dose study in healthy men, safety and tolerability
Description: Two clinical studies were carried out: a single dose study and a repeat dose study. Both studies were parallel-group, double-blind, dose-rising, and placebo-controlled in design.
as §1
Healthy young men, aged 18–45 years.
as §2, §3
Data from all subjects who received IB-MECA were included in the analysis of safety and tolerability (adverse events and laboratory safety variables). Numerical data and parameters were summarised using means or medians, and other descriptive statistics, according to the type and distribution of the data.

[2] = Repeat dose study in healthy men, plasma pharmacokinetics; details: for Cmax: n=5
Description: as §1, §2, §3, §4, §5

[3] = single doses 1-10 mg, independent of dose
[4] = single oral dose 1 mg, mean (SD)
[5] = single oral dose 5 mg, mean (SD)
[6] = single oral dose 10 mg, mean (SD)
[7] = 2 mg every 12 h, Day 1, mean (SD)
[8] = 2 mg every 12 h, Day 7, mean (SD)
[9] = 3 mg every 12 h, Day 1, mean (SD)
[10] = 3 mg every 12 h, Day 7, mean (SD)
[11] = 4 mg every 12 h, Day 1, mean (SD)
[12] = 4 mg every 12 h, Day 7, mean (SD)
[13] = 5 mg every 12 h, Day 1, mean (SD)
[14] = 5 mg every 12 h, Day 7, mean (SD)
[15] = repeated doses, independent of dose

## CNC(=O)[C@H]1O[C@@H](n2cnc3c(NCc4cccc(I)c4)ncnc32)[C@H](O)[C@@H]1O [IB-MECA, N6-(3-iodobenzyl)-adenosine-5′-N-methyl-uronamide]
[1]; single daily dose of 5 mg and twice daily dose of 4 mg
  plasma level (Cmax): < 80 ng/mL
[1]; single daily dose of 5 mg and twice daily dose of 4 mg, read-out: plasma level (Cmax)
  Cmax: < 160 nM
[1]; single doses 1-10 mg
  tmax: 1 to 2 h
[1]; [3]
  apparent plasma clearance (CL/F): 4 to 7 L/h
  half-life: about 8.5 h
[1]; [4]
  AUC(0–48): 220.7 ng·h/mL
  AUC(inf): 225.2 (21.7) ng · h/mL
  CL/F: 4.5 (0.4) L/h
  t1/2: 8.7 (0.7) h
[1]; single oral dose 1 mg, mean (SD), n=4
  Cmax: 21.2 ng/mL
[1]; single oral dose 1 mg, median (range)
  tmax: 1 (1–2) h
[1]; [5]
  AUC(0–48): 872.3 ng·h/mL
  AUC(inf): 904.0 (221.9) ng · h/mL
  CL/F: 5.8 (1.4) L/h
  t1/2: 8.3 (0.2) h
[1]; single oral dose 5 mg, mean (SD), n=4
  Cmax: 81.6 ng/mL
[1]; single oral dose 5 mg, median (range)
  tmax: 1 (1–2) h
[1]; [6]
  AUC(0–48): 1780.0 ng·h/mL
  AUC(inf): 1813.0 (226.5) ng · h/mL
  CL/F: 5.6 (0.7) L/h
  t1/2: 8.6 (0.4) h
[1]; single oral dose 10 mg, mean (SD), n=4
  Cmax: 178.0 ng/mL
[1]; single oral dose 10 mg, median (range)
  tmax: 1 (1–2) h
Healthy men; 2-5 mg every 12 h for 7 days, vital signs, physical examination, FEV1, ECG
  safety profile: acceptable safety profile
Healthy men; Day 1 of repeated dosing, effect smaller on Day 7
  heart rate: dose-related increase in heart rate
Healthy men; repeat doses of up to 4 mg 12-hourly
  tolerability: safe and well tolerated
Healthy men; repeated doses of 5 mg 12-hourly
  adverse events within 12 h of dosing: 13
Healthy men; repeated doses of up to 4 mg 12-hourly
  adverse events within 12 h of dosing: 2
Healthy men; twice daily administration
  maximal tolerated dose: 4 mg
[2]; [7]
  AUC (AUC(inf) on Day 1): 207.4 (52.0) ng · h/mL
  AUC(0–12): 155.2 (39.1) ng · h/mL
  CL/F: 10.1 (2.3) L/h
  t1/2: 5.52 (0.2) h
  Cmax: 22.0 (3.3) ng/mL
[2]; 2 mg every 12 h, Day 1, median (range)
  tmax: 2 (1–4) h
[2]; [8]
  AUC (AUC(0–24) on Day 7): 346.3 (64.0) ng · h/mL
  AUC(0–12): 242.4 (41.4) ng · h/mL
  CL/F: 4.9 (0.7) L/h
  t1/2: 9.83 (1.2) h
  Cmax: 30.9 (3.1) ng/mL
[2]; 2 mg every 12 h, Day 7, median (range)
  tmax: 2 (1–2) h
[2]; [9]
  AUC (AUC(inf) on Day 1): 423.5 (27.5) ng · h/mL
  AUC(0–12): 304.5 (19.5) ng · h/mL
  CL/F: 7.1 (0.5) L/h
  t1/2: 6.29 (1.0) h
  Cmax: 49.3 (9.7) ng/mL
[2]; 3 mg every 12 h, Day 1, median (range)
  tmax: 2 (1–2) h
[2]; [10]
  AUC (AUC(0–24) on Day 7): 512.1 (74.1) ng · h/mL
  AUC(0–12): 341.6 (38.1) ng · h/mL
  CL/F: 5.0 (0.6) L/h
  t1/2: 9.25 (0.8) h
  Cmax: 49.0 (7.9) ng/mL
[2]; 3 mg every 12 h, Day 7, median (range)
  tmax: 1 (1–2) h
[2]; [11]
  AUC (AUC(inf) on Day 1): 400.2 (85.7) ng · h/mL
  AUC(0–12): 297.0 (57.2) ng · h/mL
  CL/F: 10.4 (2.1) L/h
  t1/2: 5.77 (0.6) h
  Cmax: 46.2 (11.4) ng/mL
[2]; 4 mg every 12 h, Day 1, median (range)
  tmax: 2 (1–2) h
[2]; [12]
  AUC (AUC(0–24) on Day 7): 640.3 (73.7) ng · h/mL
  AUC(0–12): 458.3 (54.8) ng · h/mL
  CL/F: 5.4 (0.7) L/h
  t1/2: 8.93 (0.8) h
  Cmax: 58.1 (10.4) ng/mL
[2]; 4 mg every 12 h, Day 7, median (range)
  tmax: 1 (1–2) h
[2]; [13]
  AUC (AUC(inf) on Day 1): 596.1 (196.6) ng · h/mL
  AUC(0–12): 461.6 (157.4) ng · h/mL
  CL/F: 9.3 (3.5) L/h
  t1/2: 4.96 (0.3) h
  Cmax: 63.6 (22.0) ng/mL
[2]; 5 mg every 12 h, Day 1, median (range)
  tmax: 2 (1–2) h
[2]; [14]
  AUC (AUC(0–24) on Day 7): 818.4 (214.0) ng · h/mL
  AUC(0–12): 601.0 (163.6) ng · h/mL
  CL/F: 5.4 (1.5) L/h
  t1/2: 9.39 (0.6) h
  Cmax: 79.5 (24.1) ng/mL
[2]; 5 mg every 12 h, Day 7, median (range)
  tmax: 2 (2–2) h
[2]; ratio Day 7 to Day 1
  accumulation index for AUC: 1.1–1.6
  accumulation index for Cmax: 1–1.4
[2]; repeated doses 2-5 mg every 12 h
  tmax: 1 to 2 h
[2]; repeated doses every 12 h
  steady state reached by: ≤ 3 days
[2]; [15]
  apparent plasma clearance (CL/F): 5 to 10 L/h
  half-life at steady state: 9 to 10 h

Reference: patent US7141553B2, “A3AR agonists for the treatment of inflammatory arthritis” (Can-Fite Biopharma Ltd. Israel, priority 2002, dated 2006)
